Laboratory results: US4248880A, “Treatment of gastric ulcers with naphthimidazole derivatives” (Hoffmann-La Roche Inc., priority 1977, dated 1981)

Tests used:
LD50 in the mouse = details: in vivo, po, per os
gastric acid secretion = assay: inhibition of 4-methylhistamine-stimulated gastric acid secretion in the conscious Heidenhain pouch dog; type: in vivo; details: Canis lupus familiaris, oral, 4-methylhistamine dihydrochloride infusion i.v., read-out: effective therapeutic dosage (per os amount causing 60-80% inhibition of acid secretion produced by 4-methylhistamine)
Excerpt: A part of the stomach fundus of dogs is separated from the remaining stomach in the form of a pouch according to the Heidenhain technique described by Rudick et al in J. Surgical Research, vol. 7, pp 383-398 (1967). The pouch is fitted with a steel canula conducted externally through the abdominal wall and the operation is allowed to heal. Utilizing a conscious dog prepared as above, gastric secretion is stimulated by an infusion of 4-methylhistaminedihydrochloride (40 μ/kg per hr., i.v.) which selectively stimulates histamine H2 receptors. When volumes of fifteen minute samples of gastric secretion and pH levels appear constant, the test substance is administered orally and samples again taken. […] In the context of this procedure, an effective therapeutic dosage may be defined as the amount of test substance administered per os which causes an inhibition of from 60-80% of the acid secretion produced by the administration of 4-methylhistamine.

[1] = test system: stress-induced gastric ulcers; assay: inhibition of the formation of stress-induced gastric ulcers in rats (water bath); type: in vivo; details: Rattus norvegicus, po, 6 h; female rats 140 to 160 g; per os; water bath 22.5° C. for six hours; 10 rats per dosage; Probit method; read-out: ED50 (effective dosage at which 50% of the rats are protected against stress-induced ulcers)
Method: After six hours in the water, the animals were sacrificed and the incidence of ulcers noted. The ED50, that is, the dosage at which 50% of the 10 rats utilized per dosage are protected against stress-induced ulcers by the test compound was then determined according to the Probit method.

SMILES | LD50 (LD50 in the mouse) [mg/kg] | ED (60-80) (gastric acid secretion) [mg/kg] | ED50 [1] [mg/kg]
Cc1ccc(CSc2nc3cc4ccccc4cc3[nH]2)nc1 [2-/[(5-methyl-2-pyridyl)-methyl]thio/-1H-naphth[2,3-d]imidazole] | 8000 | ~3 | 31
c1ccc(CSc2nc3cc4ccccc4cc3[nH]2)nc1 [2-[(2-pyridylmethyl)thio]-1H-naphth[2,3-d]imidazole] | > 5000 | ~3 | 12
